Measured values from patent publication US20060234276A1, “Methods of treatment of type 2 diabetes” (priority 1998, published 2006).
Peptide text beside a SMILES is read from it.

Key:
mouse islets [1] = assay: Islet NAD(P)H autofluorescence response; type: cell-based
Description: Measurement of islet [Ca^2+]i, and NAD(P)H. Islet [Ca^2+]i and NAD(P)H were measured as previously described (Pontoglio et al., 1998; Dukes et al., 1998).

mouse pancreatic islets = assay: Static incubation of isolated pancreatic islets, insulin secretion; type: cell-based
Description: Static incubation of isolated pancreatic islets. Isolation of mouse pancreatic islets was accomplished using collagenase digestion as previously described (Pontoglio et al., 1998). […] Triplicate groups of 5 islets were then incubated in borosilicate tubes containing 1 ml of KRB with the same concentration of inhibitor and various insulin secretagogues for one hour in a moving water bath at 37° C. The reaction was stopped by placing the tubes on ice and an aliquot of the buffer was removed for measurement of insulin levels. Control studies, in which the incubation mixture contained vehicle (0.1% DMSO) only, were performed using aliquots of the same batch of islets
Assay methods. Insulin concentrations were measured by a double antibody radioimmunoassay using a rat insulin standard. The intra-assay coefficient of variation for this technique is 7%. All samples were assayed in duplicate.

calpain = assay: Calpain activity in mouse pancreatic islets (Boc-Leu-Met-CMAC cleavage); type: cell-based
rat adipocytes = assay: 2-Deoxyglucose uptake into adipocytes; type: cell-based; conditions: 100 μM ALLM or 200 μM E-64-d
Description: Adipocytes were isolated from epididymal fat pads of 3 month old male Wistar rats as described previously (Robdell, 1964) with the following modification: fat pads were minced to 1-2 mm pieces and incubated for ˜25 min at 37° C. with collagenase I (1 mg/ml, Worthington Biochemicals, Lakewood, N.J.) in KRB containing 10 mM Hepes (pH 7.4), 0.2% BSA and 2 mM sodium pyruvate. The cell suspension was filtered through a nylon mesh (134 μM, Spectrum Lab., Laguna Hills, Calif.) washed three times by floating and allowed to rest for 45 min in the KRB. […] Then another 50 μl of KRB containing 5 mM 2-DOG (final concentration 1 mM), 0.5 μCi of 2-deoxy-[2,6-^3H]glucose was added and cells were incubated for a further 5 min at 25° C. The transport was stopped by adding cytochalasin B (final concentration 50 μM) and cells were spun through 250 μl of dinonyl phthalate oil (Fisher Scientific, Pittsburgh, Pa.). Cells were then transferred to scintillation vials for counting.

soleus muscle strips = assay: Glycogen synthesis rates in skeletal muscle; type: cell-based, rat; conditions: 100 μM ALLM or 200 μM E-64-d
From the text: Glycogen synthesis rates in skeletal muscle.

mouse islets [2] = assay: Glucose utilization and oxidation rates in islets; type: cell-based
Description: Glucose utilization and oxidation rates. Glucose utilization and oxidation rates were measured as previously described (Dukes et al., 1998; Zhou et al., 1996) in mouse islets cultured as described above in the presence or absence of calpain inhibitors.

perifused mouse islets = assay: Insulin secretion from perifused islets; type: cell-based; conditions: 4 hr preincubation; 100 μM ALLM, 200 μM E-64-d
Description: Insulin secretion from perifused islets. Insulin secretion from perifused islets was measured using a modification of a previously described protocol (Pontoglio et al., 1998; Sreenan et al., 1998).

β-cells = assay: Whole-cell patch-clamp calcium currents in β-cells; type: cell-based, mouse
Description: Isolation of pancreatic β-cells. Single β-cells were obtained from isolated islets dispersed by gentle trituration (120 strokes through a 200 μl pipette tip) in Ca^2+ and Mg^2+-free PBS containing […]. Cells were plated on glass coverslips and maintained in culture in RPMI containing 11.6 mM glucose for 48-96 hr.
Patch-clamp electrophysiology. Calcium current measurements were obtained in the whole-cell patch-clamp configuration. Calcium currents were activated by step depolarizations to either +10 or +20 mV for either 20 ms or 100 ms, from HP=−80 mV. All current records are corrected for leak and capacitance. The data was filtered at 2 kHz and then sampled every 100 μs. Pipette resistances were 1.5-2.5 MΩ. Series resistance was partially compensated (˜80%) using the compensation circuit of the Axopatch-1C amplifier.
Cells were incubated for 3-4 hr in RPMI at 37° C. in either 0.1% DMSO (control) or 100 μM ALLM and then transferred for a further 1-2 hr to KRB containing similar concentrations of DMSO or ALLM. For recording, cells were bathed in a solution containing (in mM): 145 NaCl, 2 KCl, 1 MgCl2, 2 glucose, 10 HEPES, 10 CaCl2, pH 7.3 (adjusted with NaOH) and either DMSO or ALLM. […]

Compound: CSCC[C@@H](C=O)NC(=O)[C@H](CC(C)C)NC(=O)[C@H](CC(C)C)NC(C)=O [ALLM, N-Ac-Leu-Leu-methioninal] (Ac-Leu-Leu-Met-aldehyde)
- NAD(P)H response to increase in glucose from 2 to 14 mM (mouse islets [1]; 100 μM ALLM or E-64-d, 4 hr preincubation): 2.7±0.4 fold increase
- NAD(P)H responses to KIC vs control (mouse islets [1]; 48 h treated islets): significantly reduced
- NAD(P)H responses to glucose vs control (mouse islets [1]; 48 h treated islets): comparable
- insulin secretory response to 30 mM KCl (mouse pancreatic islets; 100 μM ALLM, 4 hr, 2 mM glucose): did not however significantly increase
- insulin secretory response to 100 μM carbachol (CCh) (mouse pancreatic islets; 100 μM ALLM, 4 hr, 8 mM glucose): did not however significantly increase
- increase of insulin secretory response to 50 nM GLP-1 (mouse pancreatic islets; 100 μM ALLM, 8 mM glucose): 1.55±0.2 fold
- insulin secretory response to 20 mM glucose after recovery (mouse pancreatic islets; 48-h treatment, then 2 days recovery without inhibitor): essentially normal insulin secretory response
- effect on insulin secretion at 2 mM glucose (mouse pancreatic islets; 4 hr exposure, ALLM 250 μM, E-64-d 200 μM, 2 mM glucose): not observed
- increase of insulin secretory response to 20 mM glucose (mouse pancreatic islets; 4 hr exposure, ALLM 250 μM, E-64-d 200 μM, 20 mM glucose, mean±SEM): 1.97±0.3 fold
- inhibition of 20 mM glucose-stimulated insulin secretion (mouse pancreatic islets; 48 h, 100 μM ALLM (so in the source), 50 μM MDL28170): 88±9%
- basal insulin secretion (2 mM glucose) vs control-treated islets (mouse pancreatic islets; 48 hours exposure): no significant difference
- insulin secretory response to carbachol (mouse pancreatic islets; 48 h treated islets): attenuated
- insulin secretory response to glyceraldehyde (mouse pancreatic islets; 48 h treated islets): responded normally
- insulin secretory response to mastoparan (mouse pancreatic islets; 48 h treated islets): attenuated
- insulin-secretory response to keto-isocaproic acid (KIC) (mouse pancreatic islets; 48 h treated islets): decreased
- insulin secretory responses to glucose (summary statement of Example 8) (mouse pancreatic islets; isolated mouse islets, introductory summary, no conditions given): reduces insulin secretory responses
- concentration at which inhibition of insulin secretion was achieved (dose response) (mouse pancreatic islets; long-term exposure, glucose stimulated insulin secretion): 25 µM
- area under the curve of rate of generation of fluorescent calpain product (calpain; 200 μM inhibitor, 4 hr incubation): 35±4 % of control values
- residual calpain activity in intact islets (calpain; 48 h treatment, 100 μM ALLM or 200 μM E-64-d): 54±3 % of control treated islets
- 2-DOG uptake into adipocytes with insulin (rat adipocytes; insulin 12 nmol/L): 751±71 pmol/2×10^5 cells/5 min
- 2-DOG uptake into adipocytes without insulin (rat adipocytes; no insulin): 598±102 pmol/2×10^5 cells/5 min
- magnitude of insulin-induced increase in muscle glycogen synthesis (soleus muscle strips; insulin 6 nM): 0.13±0.03 nmol glucose/mg/hr
- rate of muscle glycogen synthesis with insulin (soleus muscle strips; insulin 6 nM): 0.40±0.05 nmol glucose/mg/hr
- rate of muscle glycogen synthesis without insulin (soleus muscle strips; no insulin): 0.27±0.03 nmol glucose/mg/hr
- rate of glucose utilization at basal glucose (mouse islets [2]; 2 mM glucose, 100 μM ALLM or 200 μM E-64-d, 4 h): 14.5±3.6 pmol/islet/hr
- rate of glucose utilization at stimulatory glucose (mouse islets [2]; 20 mM glucose, 100 μM ALLM or 200 μM E-64-d, 4 h): 89.5±3.0 pmol/islet/hr
- rate of basal glucose utilization and oxidation at 3.3 mM glucose (mouse islets [2]; 48 h treated islets): no significant changes
- rates of glycolysis and glucose oxidation at stimulating concentrations of glucose (mouse islets [2]; 48 h treated islets vs controls): significantly reduced
- glucose oxidation rate at basal glucose (mouse islets [2]; basal glucose, ALLM or E-64-d, 4 h): 6.0±0.7 pmol/islet/hr
- glucose oxidation rate at stimulatory glucose (mouse islets [2]; stimulatory glucose, ALLM or E-64-d, 4 h): 39.5±4.1 pmol/islet/hr
- enhancement of insulin secretory response to 20 mM glucose in dynamic islet perifusion (perifused mouse islets): also observed
- average peak calcium current density (β-cells; ALLM 100 μM pre-treated cells, n=15): 36.7±3.9 pA/pF
- whole-cell calcium currents (β-cells; ALLM 100 μM pre-treated vs control cells): similar
